{
  "source": "patent US20160143884A1",
  "about": "“USE OF TETRAHYDROINDAZOLYLBENZAMIDE AND TETRAHYDROINDOLYLBENZAMIDE DERIVATIVES FOR THE TREATMENT OF HUMAN IMMUNODEFICIENCY VIRUS (HIV) AND ACQUIRED IMMUNE DEFICIENCY SYNDROME (AIDS)” (Esanex, Inc., priority 2014, published 2016)",
  "key": {"[1]": {"tested_on": "2LTR non-integrated circular form of the HIV genome", "test": "HIV integration in 2LTR assay (real-time PCR)", "type": "cell-based, HIV-1"}, "[2]": {"tested_on": "JLAT clones (A2; 9.2)", "test": "HIV-1 reactivation and inhibition of reactivation in JLAT clones (GFP, flow cytometry)", "type": "cell-based, human", "protocol": "Two JLAT clones (A2; 9.2) were incubated for 24 hours with tumor necrosis factor alpha (TNFα), phorbol myristate 13-acetate (PMA), Compound 9 (9, various doses), and all combinations of these three compounds. JLAT cells make GFP when HIV is reactivated from latency.\nJ-Lat cells (JLAT 9.2, 5×10^5/mL) were cultured in Gibco RPMI-1640 media, supplemented with 10% (vol/vol) FCS and 5% (vol/vol) penicillin streptomycin at 37° C., 5% CO2 under sterile conditions. For HIV-1 reactivation experiments, 10^6 cells/mL were mixed with TPA (10 nM final, unless otherwise indicated) or TNFα (5 ng/mL final) and immediately 150 μL of cell mix was dispensed into 96-well plates. Compound 9 was added to the 96-well plates in serial dilutions. Cells were incubated for 24 h before analysis by flow cytometry.\nJLAT (A2) cells were incubated with the following treatments: media (negative control), DMSO (SNX control), 1 ng/mL TNFα, 2 μM PMA, or these agonists+1, 0.1, 0.01, or 0.001 Compound 9 (left to right in the attached figure). 20 h post incubation, the cells were washed, fixed, and run on a flow cytometer. Media, DMSO, TNFα, and PMA were each run in quadruplicate; all other reactions were run in singlet. >10,000 events (cells) were counted for each treatment. Data are expressed as % GFP+cells (negative cells set by gating on media alone control)."}, "[3]": {"tested_on": "Tat-mediated activation of the HIV-LTR promoter", "test": "TAT-mediated transactivation, HIV-LTR-Luc reporter", "type": "cell-based, HIV-1", "protocol": "SupT1 cells were transfected with a HIV-LTR-Luc construct (LAI), +/−Tat (pcTAT, subtype B), along with a constitutively active renilla-luciferase construct (to normalize for transfection efficiency). Firefly and renilla activity were monitored (sequentially, same sample) 24 hours post transfection. DMSO was used as a negative control; and Compound 9 was added at 1, 0.1, and 0.001 μM. These reactions were done in singlet (pilot). TZM-bl cells are HeLa derived cells that contain CD4, CCR5, and an integrated HIV promoter (LTR) fused to firefly luciferase. Untransfected cells (LTR) or Tat-transfected cells (LTR+TAT) were incubated with Compound 9 at the indicated doses at the time of transfection. DMSO was used as a negative control. Luciferase activity was measured 20 hours post-transfection using a commercially-available luciferase substrate (Promega) and the results are shown in FIG. 8. […] Repeat results are illustrated in Tat-Experiment 2 graph."}, "[4]": {"tested_on": "SIVmac251 virus", "test": "SIV inhibition in NHP PBMC, p27 antigen capture assay", "type": "cell-based", "conditions": "0.0005 to 50 μM", "protocol": "Non-human primate (NHP) cells were activated in IL-2 growth medium (GM) containing PHA-P at a concentration of 10 μg/ml for 24 hrs. The next day cells were washed and re-suspended in fresh IL-2 GM. Compound 9 was serially diluted at concentrations ranging from 0.0005 to 50 μM in a 96 well u-bottom plate containing IL-2 GM. Activated cells were then added to the wells of the plate. SIVmac251 virus, diluted 1:25 in IL-2 GM, was subsequently added to the appropriate wells containing the compounds of interest and the cells except for controls. This virus represents the same virus preparation utilized for infection of the animals. The plate was then incubated overnight and, after extensive washing the next day, the plate was then placed back in the incubator at 37° C., 5% CO2.\nOn day 4-5, of the assay, supernatants were harvested and a SIV p27 antigen capture assay was used to detect SIV p27 in the supernatant. […] The percentage of inhibition in each experiment is reported in FIGS. 3b and 3c for test 1 and 2, respectively."}},
  "data": [
    {"smiles": "CC1(C)CC(=O)c2c(C(F)(F)F)nn(-c3ccc(C(N)=O)c(N[C@H]4CC[C@H](O)CC4)c3)c2C1", "note": "[Compound 9, 4-(6,6-Dimethyl-4-oxo-3-trifluoromethyl-4,5,6,7-tetrahydro-indazol-1-yl)-2-(trans-4-hydroxy-cyclohexylamino)-benzamide]", "values": [
      {"measurement": "Expression level of 2LTR", "setting": "[1]; 10 nM, both time points", "value": "expression levels similar to HIV Only"},
      {"measurement": "Expression level of 2LTR", "setting": "[1]; 100 nM", "value": "highest expression levels of 2LTR over all other samples"},
      {"measurement": "Expression level of 2LTR", "setting": "[1]; 1 μM", "value": "highest expression levels of 2LTR over all other samples"},
      {"measurement": "Increase in GFP positive cells (HIV reactivation)", "setting": "[2]; JLAT (A2) model", "value": "about 2 fold"},
      {"measurement": "Inhibition of TNFα or PMA (phorbol ester) induced HIV-1 reactivation", "setting": "[2]; JLAT A2 and JLAT 9.2 cells", "value": "does not inhibit"},
      {"measurement": "Tat-mediated transactivation", "setting": "[3]", "value": "inhibit"},
      {"measurement": "Amount of p27 in the supernatant of the cultures", "setting": "[4]", "value": "dose-dependent reduction"}
    ]}
  ]
}
